This passage reports MIC and IC50 results from ChEMBL document CHEMBL4316655, “Sesquiterpenoids from the Endophytic Fungus Rhinocladiella similis” (J Nat Prod, 2019).

The test system of assay [1] is Klebsiella pneumoniae. As to the kind of experiment: Antibacterial activity against Klebsiella pneumoniae ATCC 13883 by broth microdilution method. The format is functional.
Assay [2] deals with Enterococcus faecium. As to the kind of experiment: Antibacterial activity against Enterococcus faecium ATCC 35667 by broth microdilution method. It counts as functional.
In assay [3] the test system is Staphylococcus aureus. As to the kind of experiment: Antibacterial activity against Staphylococcus aureus ATCC 29213 by broth microdilution method. The format is functional.
The subject of assay [4] is L5178Y. As to the kind of experiment: Cytotoxicity against mouse L5178Y cells by MTT assay. The format is functional, cell-based.

pIC50: −log10 of the molar value. Values after ≈ are worked out from the molar mass of the structure shown.

For the compound `CC(C)[C@H]1CC[C@@](O)(CCl)[C@H]2C(=O)OCC(C(=O)O)=C[C@H]12` [HEPTELIDIC ACID CHLOROHYDRIN], the MIC in assay [1] was found to be 100 µM (≈ 31.7 µg/mL); in assay [2] it was 50 µM (≈ 15.8 µg/mL); in assay [3], 50 µM (≈ 15.8 µg/mL). Turning to `CC(C)[C@H]1CC[C@@](O)(COC(=O)C2=C[C@@H]3[C@@H](C(C)C)CC[C@@](O)(CCl)[C@H]3C(=O)OC2)[C@H]2C(=O)OCC(C(=O)O)=C[C@H]12`, the pIC50 in assay [4] is 5.30. The same measure, in the same setting: the figure for `CC(C)[C@H]1CC[C@H](CO)[C@@H]2[C@@H]1C=C(C(=O)O)C[C@H]2O` is 5.06.

In assay [4], `CC(C)[C@H]1CCC(CO)=C[C@@H]1/C=C(\CO)C(=O)O` [GLIOCLADIC ACID] showed a pIC50 of 4.61.
